≈ marks a conversion by molar mass, not a printed value. Read-outs that look alike come from different tables or passages of the source.
Columns and labels:
S. aureus ATCC 13709 = test: MIC, S. aureus ATCC 13709 (Alamar Blue broth microdilution); type: cell-based; conditions: for MIC: Staphylococcus aureus, ATCC13709, S. aureus
E. coli ATCC 25922 = test: MIC, E. coli ATCC 25922; type: cell-based; conditions: for MIC: Escherichia coli, ATCC25922, E. coli
[1] = Alamar Blue read after overnight incubation at 35° C.
[2] = S. aureus, Alamar Blue read after overnight incubation at 35° C.
[3] = E. coli, Alamar Blue read after overnight incubation at 35° C.

Compound | MIC (S. aureus ATCC 13709; [1]) [mg/L] | MIC (E. coli ATCC 25922; [1]) [mg/L] | other results
CNc1cc(F)cc2c1[nH]c1nc(Oc3cnc4cccnc4c3)nc(N3CC[C@]4(C[C@@H]4N)C3)c12 [4.040] | ≤ 0.5 | ≤ 0.5 | –
CNc1cc(F)cc2c1[nH]c1nc(Oc3cnc(N4CCCC4=O)nc3)nc(N3C[C@H](N)C4(CC4)C3)c12 [4.346] | ≤ 0.5 | 4 (≈ 7.94 µM) | –
CNc1cc(F)cc2c1[nH]c1nc(Oc3cncc(C(N)=O)c3)nc(N3CC(N)C4(CC4)C3)c12 (centres unmarked) [4.238] | – | – | MIC Sa (S. aureus ATCC 13709; [2]): 2 mg/L (≈ 4.32 µM); MIC Ec (E. coli ATCC 25922; [3]): >16 mg/L
CNc1cccc2c1[nH]c1nc(Oc3cncnc3)nc(N3CCN(CCN4CCOCC4)CC3)c12 [3.60] | 8 (≈ 16.3 µM) | > 64 | –
CNc1cc(F)cc2c1[nH]c1nc(Oc3cnc(C)nc3)nc(N3CCCC(N)C3)c12 (centres unmarked) [4.077] | – | – | MIC Sa (S. aureus ATCC 13709; [2]): ≤0.5 mg/L; MIC Ec (E. coli ATCC 25922; [3]): ≤0.5 mg/L
CNc1cc(F)cc2c1[nH]c1nc(Oc3cnc(N)nc3)nc(N3CC4C(CN)C4C3)c12 (centres unmarked) [4.188] | ≤ 0.5 | 8 (≈ 18.4 µM) | –
CNc1cc(F)cc2c1[nH]c1nc(Oc3cncnc3)nc(N3C[C@H]4C[C@@H]3C[C@H]4N)c12 [4.034] | ≤ 0.5 | ≤ 0.5 | –
CNc1cc(F)cc2c1[nH]c1nc(Oc3ccc4c(c3)C(=O)NC4)nc(N3C[C@H](N)C4(CC4)C3)c12 [4.265] | ≤ 0.5 | 4 (≈ 8.45 µM) | –
CNc1cc(F)c(C)c2c1[nH]c1nc(Oc3cnc(C)nc3)nc(NCCCN)c12 [6.21] | – | – | MIC Sa (S. aureus ATCC 13709): >16 mg/L; MIC Ec (E. coli ATCC 25922): >16 mg/L
CNc1cccc2c1[nH]c1nc(Oc3cncnc3)nc(N3CC4CC4(N)C3)c12 (centres unmarked) [3.1] | 1 (≈ 2.57 µM) | 4 (≈ 10.3 µM) | –
CNc1cc(F)cc2c1[nH]c1nc(Sc3cnc4cccnc4c3)nc(N3CC(N)C4(CC4)C3)c12 (centres unmarked) [1.62] | ≤ 0.5 | ≤ 0.5 | –
Cc1cccc2c1[nH]c1nc(Sc3cnc4nccnc4c3)nc(N3CC4C(N)C4C3)c12 (centres unmarked) [1.7] | 4 (≈ 9.08 µM) | > 32 | –
CNc1cc(F)cc2c1[nH]c1nc(Oc3cnc(C)nc3)nc(N3CC4CC(N)C4C3)c12 (centres unmarked) [4.110] | – | – | MIC Sa (S. aureus ATCC 13709; [2]): ≤0.5 mg/L; MIC Ec (E. coli ATCC 25922; [3]): ≤0.5 mg/L
CNc1cc(F)cc2c1[nH]c1nc(Oc3cnc4[nH]cnc4c3)nc(N3C[C@H](N)C4(CC4)C3)c12 [4.313] | – | – | MIC Sa (S. aureus ATCC 13709; [2]): 8 mg/L (≈ 17.4 µM); MIC Ec (E. coli ATCC 25922; [3]): >16 mg/L
CNc1cccc2c1[nH]c1nc(Sc3cnc4nccnc4c3)nc(N3CC[C@H](N)C3)c12 [1.15] | 1 (≈ 2.25 µM) | 2 (≈ 4.51 µM) | –
CNc1cccc2c1[nH]c1nc(Sc3cnc4nccnc4c3)nc(N3CC4C(N)C4C3)c12 (centres unmarked) [1.16] | ≤ 0.5 | 1 (≈ 2.2 µM) | –

Compound | MIC (S. aureus ATCC 13709; [1]) [mg/L] | MIC (E. coli ATCC 25922; [1]) [mg/L] | other results
CNc1cc(F)cc2c1[nH]c1nc(Oc3cncc(SC)c3)nc(N3CC4C[C@@H](N)C4C3)c12 (some centres unmarked) [4.355] | ≤ 0.5 | ≤ 0.5 | –
CNc1cc(F)cc2c1[nH]c1nc(Sc3cnc4ccc[n+]([O-])c4c3)nc(N3CC4C(N)C4C3)c12 (centres unmarked) [1.50] | ≤ 0.5 | ≤ 0.5 | –
CNc1cc(F)cc2c1[nH]c1nc(Oc3cnc(CCO)nc3)nc(N3CC4C[C@@H](N)C4C3)c12 (some centres unmarked) [4.415] | ≤ 0.5 | 1 (≈ 2.15 µM) | –
CNc1cccc2c1[nH]c1nc(Sc3cnc4ccc[n+]([O-])c4c3)nc(N3CC[C@@H](C)[C@@H](N)C3)c12 [1.35] | ≤ 0.5 | 2 (≈ 4.11 µM) | –
CNc1cccc2c1[nH]c1nc(Oc3cnc(OC)c(OC)c3)nc(N3CC[C@@H](N)C3)c12 [3.2] | 4 (≈ 9.19 µM) | 16 (≈ 36.7 µM) | –
CNc1cc(F)cc2c1[nH]c1nc(Oc3cncc(-c4cncnc4)c3)nc(N3CC4C(N)C4C3)c12 (centres unmarked) [4.205] | ≤ 0.5 | ≤ 0.5 | –
CNc1cccc2c1[nH]c1nc(Sc3cnc4cccnc4c3)nc(N3CCNCC3)c12 [1.46] | 2 (≈ 4.52 µM) | 4 (≈ 9.04 µM) | –
CNc1cc(F)cc2c1[nH]c1nc(Oc3cnc(C(N)=O)nc3)nc(N3C[C@H](N)C4(CC4)C3)c12 [4.375] | ≤ 0.5 | 4 (≈ 8.63 µM) | –
CNc1cc(F)cc2c1[nH]c1nc(Oc3cncc(Br)c3)nc(N3CC4CC(N)C4C3)c12 (centres unmarked) [4.283] | – | – | MIC Sa (S. aureus ATCC 13709; [2]): ≤0.5 mg/L; MIC Ec (E. coli ATCC 25922; [3]): ≤0.5 mg/L
CNc1cccc2c1[nH]c1nc(Sc3cnc4cccnc4c3)nc(N3CCC(C)(N)C3)c12 (centres unmarked) [1.59] | 1 (≈ 2.19 µM) | 4 (≈ 8.76 µM) | –
CNc1cccc2c1[nH]c1nc(Oc3cncc(C(N)=O)c3)nc(N3CC4C(N)C4C3)c12 (centres unmarked) [3.19] | 8 (≈ 18.6 µM) | 32 (≈ 74.3 µM) | –
CNc1cccc2c1[nH]c1nc(Oc3cnc(C)nc3)nc(N3CC4C(C3)C4NCC3CC3)c12 (centres unmarked) [3.14] | ≤ 0.5 | 2 (≈ 4.38 µM) | –
CNc1cccc2c1[nH]c1nc(Oc3cnc4cccnc4c3)nc(N3CC4C(N)C4C3)c12 (centres unmarked) [3.34] | ≤ 0.5 | ≤ 0.5 | –
CNc1cccc2c1[nH]c1nc(Sc3cnc4cccnc4c3)nc(N3CCC4(CC4N)C3)c12 (centres unmarked) [1.26] | – | – | MIC Sa (S. aureus ATCC 13709; [2]): ≤0.5 mg/L; MIC Ec (E. coli ATCC 25922; [3]): 1 mg/L (≈ 2.13 µM)
CNc1cc(F)cc2c1[nH]c1nc(Oc3cnc(C)nc3)nc(N3CC4CC3CC4N)c12 (centres unmarked) [4.129] | – | – | MIC Sa (S. aureus ATCC 13709; [2]): ≤0.5 mg/L; MIC Ec (E. coli ATCC 25922; [3]): ≤0.5 mg/L

Reference: patent US10858360B2, “Tricyclic gyrase inhibitors” (priority 2011, dated 2020)
